Test results taken from PubChem BioAssay (NCI).
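Tested at 5 concentrations; 48 h exposure; 96-well plates; endpoints linearly interpolated, else capped at highest concentration. Abbreviation: GI50, concentration required for 50% inhibition of growth. TGI denotes the concentration required for complete inhibition of growth.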

Legend:
Assay in all cases: inhibition of tumour cell growth, NCI panel, 48 h
NCI-H460 lung = system: NCI-H460 lung
OVCAR-5 ovarian = system: OVCAR-5 ovarian
NCI-H23 lung = system: NCI-H23 lung
KM12 colon = system: KM12 colon
MOLT-4 leukemia = system: MOLT-4 leukemia
SF-539 CNS = system: SF-539 CNS
OVCAR-4 ovarian = system: OVCAR-4 ovarian
RXF 393 renal = system: RXF 393 renal
786-0 renal = system: 786-0 renal
MALME-3M melanoma = system: MALME-3M melanoma

Row | SMILES | GI50 (NCI-H460 lung) | TGI (NCI-H460 lung) | GI50 (OVCAR-5 ovarian) | TGI (OVCAR-5 ovarian) | GI50 (NCI-H23 lung) | TGI (NCI-H23 lung) | GI50 (KM12 colon) | TGI (KM12 colon) | GI50 (MOLT-4 leukemia) | TGI (MOLT-4 leukemia) | GI50 (SF-539 CNS) | TGI (SF-539 CNS) | GI50 (OVCAR-4 ovarian) | TGI (OVCAR-4 ovarian) | TGI (RXF 393 renal) | GI50 (786-0 renal) | TGI (786-0 renal) | GI50 (MALME-3M melanoma) | TGI (MALME-3M melanoma) | GI50 (RXF 393 renal)
1 | COc1cccc(N=Cc2c3ccccc3c(=O)n3c2oc2ccccc23)c1 | 11.3 µM | > 100 µM | 27.1 µM | 87.4 µM | 13.3 µM | 59 µM | 3.78 µM | 42.8 µM | 2.66 µM | 6 µM | 16.3 µM | 95.3 µM | > 100 µM | > 100 µM | 20.9 µM | 14 µM | > 100 µM |  |  | 
2 | CN1C(NC(=O)c2ccc(Cl)nc2)=NS(=O)(=O)c2cc(Cl)ccc21 | > 100 µM | > 100 µM |  |  | > 100 µM | > 100 µM | > 100 µM | > 100 µM | > 100 µM | > 100 µM | > 100 µM | > 100 µM | > 100 µM | > 100 µM | > 100 µM | > 100 µM | > 100 µM | > 100 µM | > 100 µM | > 100 µM
3 | C#CC[C@]12CC(=O)CC[C@H]1CC(=O)C2 |  | > 100 µM |  |  |  |  |  | > 100 µM |  | > 100 µM |  | > 100 µM |  | > 100 µM | > 100 µM |  | > 100 µM |  | > 100 µM | 
4 | CC(C)CC(N)C(=O)O (stereo not drawn) |  | > 100 µM |  |  |  | > 100 µM |  | > 100 µM |  | > 100 µM |  | > 100 µM |  | > 100 µM | > 100 µM |  | > 100 µM |  | > 100 µM | 
5 | COc1cc([N+](=O)[O-])ccc1NC(=O)C(F)(F)F |  | > 100 µM |  | > 100 µM |  | > 100 µM |  | > 100 µM |  | > 100 µM |  | > 100 µM |  | > 100 µM |  |  | > 100 µM |  |  | 
6 | CC(C)=[CH][Sb]([Br])([CH]=C(C)C)([CH]=C(C)C)[CH]=C(C)C | 16.4 µM | 54.4 µM |  |  | 6.12 µM | 46.7 µM | 3.63 µM | 87.9 µM | 18.8 µM | > 100 µM |  |  | 22.7 µM | > 100 µM | 81.1 µM | 34.4 µM | > 100 µM | 5.28 µM | > 100 µM | 21.2 µM
7 | CCOC(=O)c1c(C)n(Cc2ccc(OC)cc2)c2c1cc(O)c1[nH]c3c(c12)CCCC3 | 8.63 µM | 27.8 µM | 2.39 µM | 17.5 µM | 1.9 µM | 13.3 µM | 2.04 µM | 5.43 µM |  |  | 2.76 µM | 7.07 µM | 15.6 µM | 88.6 µM | 43.5 µM | 13.1 µM | 49.4 µM | 2.85 µM | 18.4 µM | 11.6 µM
8 | NCCCCn1c2c(c3ccccc3c1=O)C(=O)c1ccccc1-2 | < 0.0218 µM | 0.614 µM | 0.494 µM | 1.37 µM | 0.129 µM | 0.655 µM | 0.188 µM | 0.678 µM |  |  | 0.102 µM | 0.462 µM | 0.542 µM | 5.08 µM |  | 0.0639 µM | 0.573 µM | 0.311 µM | 1.12 µM | 0.644 µM
9 | COc1cc(Cc2cc(OC)c(OC)c(OC)c2)ccc1O |  |  |  | > 100 µM |  | > 100 µM |  | > 100 µM |  | > 100 µM |  | 56.2 µM |  | > 100 µM |  |  | > 100 µM |  | 12 µM | 
10 | N#CCCN(c1ccc(/C=C2\N=C(c3ccc(Cl)cc3)OC2=O)cc1)S(=O)(=O)c1ccccc1 |  | > 100 µM |  | > 100 µM |  | > 100 µM |  | > 100 µM |  | > 100 µM |  | > 100 µM |  | > 100 µM |  |  | > 100 µM |  |  | 
11 | COc1cc2c3c(n(CCCBr)c(=O)c2cc1OC)-c1ccc(NC(C)=O)cc1C3=O | 0.506 µM | 7.31 µM | 52.6 µM | > 100 µM | 11.8 µM | 46.4 µM | 7.35 µM | > 100 µM |  |  | 3.78 µM | 16.2 µM | 32.3 µM | > 100 µM | 38.2 µM | 5.4 µM | 25.2 µM | 60.9 µM | > 100 µM | 13.3 µM
12 | N#CCCN(CCC#N)c1ccc(/C=C2\N=C(CN3C(=O)c4ccccc4C3=O)OC2=O)cc1 |  | > 100 µM |  | > 100 µM |  |  |  | > 100 µM |  | > 100 µM |  | > 100 µM |  | > 100 µM |  |  | > 100 µM |  | > 100 µM | 
13 | COC(=O)CSc1n[nH]c(-c2ccc(O)c([N+](=O)[O-])c2)n1 |  | > 100 µM |  | > 100 µM |  | > 100 µM |  |  |  | > 100 µM |  | > 100 µM |  | > 100 µM | > 100 µM |  | > 100 µM |  | > 100 µM | 
14 | CC#CC(=O)Nc1ccccc1CC(c1c[nH]c2ccccc12)c1c[nH]c2ccccc12 |  |  |  |  |  | 38.8 µM |  | 53.6 µM |  | 44.6 µM |  | 37.2 µM |  |  |  |  | 43 µM |  | 32.3 µM | 
